Results taken from ChEMBL document CHEMBL3044903, “Synthesis and Herbicidal Activity of Novel 3-Alkoxycarbonyl-3-aryl-2,3-dihydro-2-oxo-1H-pyrrole Derivatives” (J Pestic Sci, 2004).

Assays:
Echinochloa oryzicola [1] = assay: Herbicidal activity against Echinochloa oryzicola at 5.0 g a.i/a treated at 2.5 leaf stage measured after 3 weeks; type: functional
Echinochloa oryzicola [2] = assay: Herbicidal activity against Echinochloa oryzicola at 2.5 g a.i/a treated at 1.5 leaf stage measured after 3 weeks; type: functional
Oryza sativa [3] = assay: Phytotoxicity against two-leaf stage Oryza sativa cv. Nipponbare (rice) planted 2 cm depth at 5.0 g a.i/a measured after 3 weeks; type: organism-based; conditions: in vivo, 504 h
Oryza sativa [4] = assay: Phytotoxicity against two-leaf stage Oryza sativa cv. Nipponbare (rice) planted 2 cm depth at 2.5 g a.i/a measured after 3 weeks; type: organism-based; conditions: in vivo, 504 h
Echinochloa oryzicola [5] = assay: Herbicidal activity against Echinochloa oryzicola at 1 g a.i/a treated at 2.5 leaf stage measured after 3 weeks; type: functional
Echinochloa oryzicola [6] = assay: Pre-emergence herbicide activity against Echinochloa oryzicola under greenhouse condition at 10 g a.i/a measured after 3 weeks; type: functional
Echinochloa oryzicola [7] = assay: Herbicidal activity against Echinochloa oryzicola at 1 g a.i/a treated at 1.5 leaf stage measured after 3 weeks; type: functional
Oryza sativa [8] = assay: Phytotoxicity against two-leaf stage Oryza sativa cv. Nipponbare (rice) planted zero cm depth at 2.5 g a.i/a measured after 3 weeks; type: organism-based; conditions: in vivo, other, 504 h
[9] = system: Schoenoplectiella juncoides; assay: Post-emergence herbicide activity against Schoenoplectiella juncoides under greenhouse condition at 1 g a.i/a treated at one-leaf stage measured after 3 weeks; type: functional
Oryza sativa [10] = assay: Phytotoxicity against two-leaf stage Oryza sativa cv. Nipponbare (rice) planted zero cm depth at 5.0 g a.i/a measured after 3 weeks; type: organism-based; conditions: in vivo, 504 h
Echinochloa oryzicola [11] = assay: Post-emergence herbicide activity against Echinochloa oryzicola under greenhouse condition at 1 g a.i/a treated at one-leaf stage measured after 3 weeks; type: functional
Echinochloa oryzicola [12] = assay: Post-emergence herbicide activity against Echinochloa oryzicola under greenhouse condition at 10 g a.i/a treated at one-leaf stage measured after 3 weeks; type: functional
Echinochloa oryzicola [13] = assay: Herbicidal activity against Echinochloa oryzicola at 2.5 g a.i/a treated at 2.5 leaf stage measured after 3 weeks; type: functional
[14] = system: Schoenoplectiella juncoides; assay: Pre-emergence herbicide activity against Schoenoplectiella juncoides under greenhouse condition at 1 g a.i/a measured after 3 weeks; type: functional
Oryza sativa [15] = assay: Phytotoxicity against two-leaf stage Oryza sativa cv. Nipponbare (rice) planted 2 cm depth assessed as crop injury at 6 g a.i/a followed by leaching of irrigation water for 3 days measured after 3 weeks post-treatment; type: organism-based; conditions: in vivo, other, 504 h
[16] = system: Schoenoplectiella juncoides; assay: Pre-emergence herbicide activity against Schoenoplectiella juncoides under greenhouse condition at 10 g a.i/a measured after 3 weeks; type: functional
Echinochloa oryzicola [17] = assay: Herbicidal activity against Echinochloa oryzicola at 5.0 g a.i/a treated at 1.5 leaf stage measured after 3 weeks; type: functional
Oryza sativa [18] = assay: Phytotoxicity against two-leaf stage Oryza sativa cv. Nipponbare (rice) planted 2 cm depth at 1 g a.i/a measured after 3 weeks; type: organism-based; conditions: in vivo, other, 504 h
Echinochloa oryzicola [19] = assay: Pre-emergence herbicide activity against Echinochloa oryzicola under greenhouse condition at 1 g a.i/a measured after 3 weeks; type: functional
Oryza sativa [20] = assay: Phytotoxicity against two-leaf stage Oryza sativa cv. Nipponbare (rice) planted 2 cm depth assessed as crop injury at 3 g a.i/a followed by leaching of irrigation water for 3 days measured after 3 weeks post-treatment; type: organism-based; conditions: in vivo, other, 504 h
Oryza sativa [21] = assay: Phytotoxicity against two-leaf stage Oryza sativa cv. Nipponbare (rice) planted zero cm depth at 1 g a.i/a measured after 3 weeks; type: organism-based; conditions: in vivo, other, 504 h
[22] = system: Schoenoplectiella juncoides; assay: Post-emergence herbicide activity against Schoenoplectiella juncoides under greenhouse condition at 10 g a.i/a treated at one-leaf stage measured after 3 weeks; type: functional
[23] = Drug degradation in MeOH-water/KOH at 70 degC assessed as formation of 1-[1-(3,5-dichlorophenyl)-1-methylethyl]-4-methyl-3- phenyl-3-pyrrolin-2-one; type: physicochemical; conditions: buffer

Compound `COC(=O)C1(c2ccccc2)C(=O)N(C(C)(C)c2cc(Cl)cc(Cl)c2)C=C1C` (stereo not drawn) has an Activity (Echinochloa oryzicola [1]) of 98%, an Activity (Echinochloa oryzicola [2]) of 98% and an Activity (Oryza sativa [3]) of 0%. The Activity (Oryza sativa [4]) was 0%, the Activity (Echinochloa oryzicola [5]) was 60% and the Activity (Echinochloa oryzicola [6]) was 100%. For the same compound, the Activity (Echinochloa oryzicola [7]) was 98%, the Activity (Oryza sativa [8]) was 10% and the Activity [9] was 0.1%. The Activity (Oryza sativa [10]) was 80%, the Activity (Echinochloa oryzicola [11]) was 87.6% and the Activity (Echinochloa oryzicola [12]) was 100%. For the same compound, the Activity (Echinochloa oryzicola [13]) was 95%, the Activity [14] was 100% and the Activity (Oryza sativa [15]) was 7%. The Activity [16] was 100%, the Activity (Echinochloa oryzicola [17]) was 100% and the Activity (Oryza sativa [18]) was 0%. The Activity (Echinochloa oryzicola [19]) was 100%, the Activity (Oryza sativa [20]) was 0% and the Activity (Oryza sativa [21]) was 0%. For the same compound, the Activity [22] was 87.6% and the Stability [23] was “Unstable”.
